The source of these data is patent publication US9175282B2, “Cellobiose 2-epimerase, its preparation and uses” (HAYASHIBARA CO., LTD., priority 2009, dated 2015).

Test [1] deals with recombinant cellobiose 2-epimerase. As to the kind of experiment: Substrate specificity of cellobiose 2-epimerase by TLC. In kind it is biochemical, Caldicellulosiruptor saccharolyticus ATCC43494. Also on record: key to Action: −: No product is detected; ±: Some products are slightly detected; +: Some products are detected; ++: Some products are clearly detected. Conditions: for Action: 2% (w/w) substrate, MOPS buffer pH 8.0, 500 units/g-substrate, 60° C., 24 hours, product spot on TLC; for Action of the enzyme on the saccharide: summary of Table 3. How it is done:
Substrate specificity of the enzyme was investigated by allowing the purified preparation of the recombinant cellobiose 2-epimerase, obtained by the method of Experiment 4-4, to act on various saccharides. Substrate solutions were prepared by dissolving D-glucose, D-xylose, D-allose, D-ribose, D-galactose, D-fructose, D-mannose, D-psicose, D-tagatose, L-sorbose, L-rhamnose, L-ribose, trehalose, kojibiose, nigerose, isomaltose, neotrehalose, gentiobiose, lactose, sucrose, maltulose, palatinose, maltose, maltotriose, maltotetraose, maltopentaose, maltohexaose, maltoheptaose, cellobiose, cellotriose, cellotetraose, selaginose, isomaltosyl-glucoside, isomaltotriose, panose, isopanose, erlose, maltitol, maltotriitol, methyl-α-glucoside, methyl-β-glucoside, D-glucosamine, D-galactosamine, D-glucuronic acid, N-acetyl-glucosamine, or N-acetyl-galactosamine into MOPS buffer (pH 8.0) to give a final concentration of 2% (w/w) of saccharide and 40 mM buffer.
Then, each of the resulting substrate solutions was further admixed with 500 units/g-substrate, on a dry solid basis, of the purified preparation of recombinant cellobiose 2-epimerase, obtained by the method in Experiment 4-4, and followed by the enzyme reaction at 60° C. for 24 hours. After stopping the reaction by heating the reaction mixture at 100° C. for 10 minutes, each reaction mixture was subjected to TLC analysis under the conditions in Experiment 1-2 to examine the saccharides in each mixture before and after the reaction. The substrate specificity of the enzyme was judged by investigating whether the spot of the reaction product except for the substrate is detected in the TLC chromatogram or not, and the degree of the strength of the visualized spot.

The test system is the same in test [2]. As to the kind of experiment: Formation of isomerized saccharides from various saccharides, effect of the amount of enzyme. In kind it is biochemical, Caldicellulosiruptor saccharolyticus ATCC43494. How it is done: Each of them was dissolved into 20 mM acetate buffer (pH 6.0), admixed with the purified preparation of the recombinant cellobiose 2-epimerase, obtained by the method in Experiment 4-4, and followed the enzyme reaction under the conditions of 10% (w/v) substrate concentration, 60° C. for 72 hours. The amount of enzyme was set to 130 or 500 units/g-substrate when monosaccharide was used as the substrate, and to 1 or 130 units/g-substrate when disaccharide or trisaccharide was used as the substrate. Each reaction mixture was heated at 100° C. for 10 minutes to stop the reaction and subjected to HPLC analysis to determine the contents of isomerized saccharide, on a dry solid basis. The contents of epilactose and lactulose in the reaction mixture obtained using lactose as substrate were determined by GC analysis described in Experiment 1-2.

Setting [3] is: 130 units/g-substrate, 10% (w/v) substrate, pH 6.0, 60° C., 72 hours.
Where [4] appears, read: 1 unit/g-substrate, 10% (w/v) substrate, pH 6.0, 60° C., 72 hours.
The mark [5] stands for this setting: 500 units/g-substrate, 10% (w/v) substrate, pH 6.0, 60° C., 72 hours.

Regarding `O=C[C@H](O)[C@H](O)[C@H](O)CO` [D-Ribose], in test [1], the Action result is given as “−”.

In the case of `OC[C@H]1O[C@H](O[C@H]2O[C@H](CO)[C@@H](O)[C@H](O)[C@H]2O)[C@H](O)[C@@H](O)[C@@H]1O` [Trehalose], the Action entry in test [1] is given as “−”.

On to Maltotriose, for which, in test [1], the Action result is “+” and the “Action of the enzyme on the saccharide” value is given as “acted on”. Also, the “Content of isomerized saccharide in the reaction mixture (%): Epimaltotriose” value in test [2] (setting [3]) stood at 23.3%.

With `OC[C@H]1O[C@@](CO)(O[C@H]2O[C@H](CO)[C@@H](O[C@H]3O[C@H](CO)[C@@H](O)[C@H](O)[C@H]3O)[C@H](O)[C@H]2O)[C@@H](O)[C@@H]1O` [Erlose], the Action entry in test [1] is “−”.

On to `O=C[C@H](O)[C@@H](O)[C@H](O[C@@H]1O[C@H](CO)[C@@H](O)[C@H](O)[C@H]1O)[C@H](O)CO` [Cellobiose], for which, in test [1], the Action entry was “++” and the “Action of the enzyme on the saccharide” value is recorded as “relatively strong specificity”. In test [2] (setting [4]), the “Content of isomerized saccharide in the reaction mixture (%): Cellobiulose” value amounted to 1.7% and the “Content of isomerized saccharide in the reaction mixture (%): Epicellobiose” value came to 27.8%. In test [2] (setting [3]), the “Content of isomerized saccharide in the reaction mixture (%): Cellobiulose” value worked out at 53.2% and the “Content of isomerized saccharide in the reaction mixture (%): Epicellobiose” value was found to be 13.4%. Further, the “Action of the enzyme on the substrate” value in test [2] (summary of Table 5) was “relatively specifically acted”.

Regarding `OC[C@H]1O[C@H](OC[C@H]2O[C@H](O)[C@H](O)[C@@H](O)[C@@H]2O)[C@H](O)[C@@H](O)[C@H]1O` [Gentibiose], in test [1], the Action result is given as “−”.

In the case of `O=C(CO)[C@@H](O)[C@H](O)[C@H](O)CO` [D-Fructose], in test [1], the Action entry was “±” and the “Action of the enzyme on the saccharide” value was “slightly acted on”. In addition, in test [2] (setting [3]), the “Content of isomerized saccharide in the reaction mixture (%): D-Glucose” value was 2.2% and the “Content of isomerized saccharide in the reaction mixture (%): D-Mannose” value came out at 2.2%.

Consider `C[C@H](O)[C@H](O)[C@@H](O)[C@@H](O)C=O` [L-Rhamnose], for which the Action entry in test [1] is listed as “−”.

In the case of `OC[C@H]1O[C@@H](O[C@H]2[C@H](O)[C@@H](O)[C@H](O[C@H]3[C@H](O)[C@@H](O)[C@H](O[C@H]4[C@H](O)[C@@H](O)C(O)O[C@@H]4CO)O[C@@H]3CO)O[C@@H]2CO)[C@H](O)[C@@H](O)[C@@H]1O` (stereo partly drawn) [Cellotetraose], in test [1], the Action result is reported as “++” and the “Action of the enzyme on the saccharide” value was “relatively strong specificity”.

As for `CC(=O)N[C@H]1C(O)O[C@H](CO)[C@H](O)[C@@H]1O` (stereo partly drawn) [N-Acetyl-galactosamine], the Action entry in test [1] is listed as “−”.

For the molecule `CO[C@H]1O[C@H](CO)[C@@H](O)[C@H](O)[C@H]1O` [Methyl-α-glucoside], in test [1], the Action entry is given as “−”.

For the molecule Maltulose, in test [1], the Action entry is given as “±” and the “Action of the enzyme on the saccharide” value is “slightly acted on”.

On to `OC[C@H]1O[C@H](OC[C@H]2O[C@H](OC[C@H]3OC(O)[C@H](O)[C@@H](O)[C@@H]3O)[C@H](O)[C@@H](O)[C@@H]2O)[C@H](O)[C@@H](O)[C@@H]1O` (stereo partly drawn) [Isomaltotriose], for which the Action result in test [1] is listed as “−”.

On to `OC[C@H]1O[C@H](O[C@H]2[C@H](O)[C@@H](CO)OC(O)[C@@H]2O)[C@H](O)[C@@H](O)[C@@H]1O` (stereo partly drawn) [Nigerose], for which the Action entry in test [1] is given as “−”.

As to Maltopentaose, in test [1], the Action result is “±” and the “Action of the enzyme on the saccharide” value was “slightly acted on”.

In the case of `O=C[C@@H](O)[C@@H](O)[C@@H](O)[C@H](O)CO` [D-Talose], in test [2] (setting [5]), the “Content of isomerized saccharide in the reaction mixture (%): D-Galactose” value is recorded as 27.2% and the “Content of isomerized saccharide in the reaction mixture (%): D-Tagatose” value is recorded as 17.9%.

On to `OC[C@H]1O[C@H](OC[C@H]2O[C@H](O[C@H]3[C@H](O)[C@@H](O)C(O)O[C@@H]3CO)[C@H](O)[C@@H](O)[C@@H]2O)[C@H](O)[C@@H](O)[C@@H]1O` (stereo partly drawn) [Panose], for which the Action entry in test [1] is “−”.

For the molecule `OC[C@H]1O[C@H](O[C@H]2C(O)O[C@H](CO)[C@@H](O)[C@@H]2O)[C@H](O)[C@@H](O)[C@@H]1O` (stereo partly drawn) [Kojibiose], the Action result in test [1] is listed as “−”.

`OC[C@H]1O[C@H](OC[C@H]2OC(O)[C@H](O)[C@@H](O)[C@@H]2O)[C@H](O)[C@@H](O)[C@@H]1O` (stereo partly drawn) [Isomaltose]: the Action entry in test [1] is listed as “−”.

For `CC(=O)N[C@H]1C(O)O[C@H](CO)[C@@H](O)[C@@H]1O` (stereo partly drawn) [N-Acetyl-glucosamine], in test [1], the Action result is “−”.

`OC[C@@H](O)[C@@H](O[C@H]1O[C@H](CO)[C@@H](O)[C@H](O)[C@H]1O)[C@H](O)[C@@H](O)CO` [Maltitol]: in test [1], the Action entry is on record as “−”.

As to `OC[C@H]1O[C@@](CO)(O[C@H]2O[C@H](CO)[C@@H](O)[C@H](O)[C@H]2O)[C@@H](O)[C@@H]1O` [Sucrose], in test [1], the Action entry was “−”.

As for `OC[C@H]1O[C@H](O[C@H]2O[C@H](CO)[C@@H](O)[C@H](O)[C@H]2O[C@H]2O[C@H](CO)[C@@H](O)[C@H](O)[C@H]2O)[C@H](O)[C@@H](O)[C@@H]1O` [Selaginose], in test [1], the Action entry is “−”.

Regarding `N[C@H]1C(O)O[C@H](CO)[C@@H](O)[C@@H]1O` (stereo partly drawn) [D-Glucosamine], the Action result in test [1] was “−”.

As for `N[C@H]1C(O)O[C@H](CO)[C@H](O)[C@@H]1O` (stereo partly drawn) [D-Galactosamine], the Action result in test [1] is “−”.

With `OC[C@H]1O[C@@H](O[C@H]2[C@H](O)[C@@H](O)[C@H](O[C@H]3[C@H](O)[C@@H](O)C(O)O[C@@H]3CO)O[C@@H]2CO)[C@H](O)[C@@H](O)[C@@H]1O` (stereo partly drawn) [Cellotriose], in test [1], the Action result is “++” and the “Action of the enzyme on the saccharide” value is given as “relatively strong specificity”.

Regarding `OC[C@H]1O[C@@H](O[C@H]2O[C@H](CO)[C@@H](O)[C@H](O)[C@H]2O)[C@H](O)[C@@H](O)[C@@H]1O` [Neotrehalose], the Action result in test [1] was “−”.

Turning to `O=C(CO)[C@@H](O)[C@H](O)[C@@H](O)CO` [L-Sorbose], in test [1], the Action result is reported as “−”.

As for Maltohexaose, in test [1], the Action result is given as “±” and the “Action of the enzyme on the saccharide” value is recorded as “slightly acted on”.

`OC[C@H]1O[C@H](O[C@H]2[C@H](O)[C@@H](O)[C@@H](OC[C@H]3OC(O)[C@H](O)[C@@H](O)[C@@H]3O)O[C@@H]2CO)[C@H](O)[C@@H](O)[C@@H]1O` (stereo partly drawn) [Isopanose]: in test [1], the Action entry is “−”.

For the molecule `OC[C@H]1O[C@H](OC[C@H]2OC(O)(CO)[C@@H](O)[C@@H]2O)[C@H](O)[C@@H](O)[C@@H]1O` (stereo partly drawn) [Palatinose], the Action entry in test [1] was “−”.

As to `OC[C@@H](O)[C@@H](O[C@H]1O[C@H](CO)[C@@H](O[C@H]2O[C@H](CO)[C@@H](O)[C@H](O)[C@H]2O)[C@H](O)[C@H]1O)[C@H](O)[C@@H](O)CO` [Maltotriitol], the Action entry in test [1] is given as “−”.

With `O=C[C@@H](O)[C@@H](O)[C@@H](O)CO` [L-Ribose], the Action entry in test [1] was “−”.

For `O=C[C@H](O)[C@@H](O)[C@H](O)CO` [D-Xylose], in test [1], the Action entry was “−”.

As for `O=C[C@H](O)[C@@H](O)[C@H](O)[C@H](O)C(=O)O` [D-Glucuronic acid], the Action entry in test [1] is recorded as “−”.

Regarding Isomaltosyl-glucoside, the Action entry in test [1] was “−”.

For `O=C(CO)[C@H](O)[C@H](O)[C@H](O)CO` [D-Psicose], the Action result in test [1] is given as “−”.

As to Maltoheptaose, in test [1], the Action result is reported as “±” and the “Action of the enzyme on the saccharide” value is “slightly acted on”.

Turning to `CO[C@@H]1O[C@H](CO)[C@@H](O)[C@H](O)[C@H]1O` [Methyl-β-glucoside], the Action entry in test [1] is given as “−”.

As for `O=C[C@H](O)[C@H](O)[C@H](O)[C@H](O)CO` [D-Allose], the Action entry in test [1] is given as “−”.

For `OC[C@H]1O[C@H](O[C@H]2[C@H](O)[C@@H](O)[C@@H](O[C@H]3[C@H](O)[C@@H](O)[C@@H](O[C@H]4[C@H](O)[C@@H](O)C(O)O[C@@H]4CO)O[C@@H]3CO)O[C@@H]2CO)[C@H](O)[C@@H](O)[C@@H]1O` (stereo partly drawn) [Maltotetraose], in test [1], the Action result is reported as “±” and the “Action of the enzyme on the saccharide” value is “slightly acted on”.
